From the supplement of paper PMC10331698
± gives the standard deviation of the averaged measurements.

Assays:
Experiment in all cases: level (log10 ratio to DMSO vehicle control); higher = higher biomarker level / cell amount than vehicle control
Settings in all cases: in DMSO
Perfluorodecanoic acid = compound: O=C(O)C(F)(F)C(F)(F)C(F)(F)C(F)(F)C(F)(F)C(F)(F)C(F)(F)C(F)(F)C(F)(F)F [Perfluorodecanoic acid]
Method: (§1)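 BioMAP Diversity Plus panel of 12 human primary cell co-culture systems (3C, 4H, LPS, SAg, BT, BF4T, BE3C, CASM3C, HDF3CGF, KF3CT, MyoF, Mphg). Compounds were added 1 h before stimulation and left for 24 h (MyoF 48 h; BT 72 h for soluble read-outs or 6 d for IgG). Biomarkers were read by ELISA, cytotoxicity by SRB, PBMC viability and proliferation by Alamar Blue. Each well value was divided by the mean of 8 DMSO control wells on the same plate and log10 transformed; duplicate blinded samples were tested at 4 concentrations.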

[1] = compound: COC(=O)CCC(F)(F)C(F)(F)C(F)(F)C(F)(F)F [Methyl 2H,2H,3H,3H-perfluoroheptanoate]
Method: as §1

[2] = compound: CCN(CCO)S(=O)(=O)C(F)(F)C(F)(F)C(F)(F)C(F)(F)C(F)(F)C(F)(F)C(F)(F)C(F)(F)F [N-Ethyl-N-(2-hydroxyethyl)perfluorooctanesulfonamide]
Method: as §1

[3] = compound: OCC(F)(F)OC(F)(F)C(F)(F)OC(F)(F)CO [1H,1H,8H,8H-Perfluoro-3,6-dioxaoctane-1,8-diol]
Method: as §1

Heptafluorobutyramide = compound: NC(=O)C(F)(F)C(F)(F)C(F)(F)F [Heptafluorobutyramide]
Method: as §1

Perfluoropentanoic acid = compound: O=C(O)C(F)(F)C(F)(F)C(F)(F)C(F)(F)F [Perfluoropentanoic acid]
Method: as §1

[4] = compound: O=C(O)C(F)(F)OC(F)(F)C(F)(F)OC(F)(F)C(=O)O [Perfluoro-3,6-dioxaoctane-1,8-dioic acid]
Method: as §1

Test System | level (log10) (Perfluorodecanoic acid; 6700 nM) | level (log10) (Perfluorodecanoic acid; 20000 nM) | level (log10) ([1]; 6700 nM) | level (log10) ([1]; 20000 nM) | level (log10) ([1]; 60000 nM) | level (log10) ([2]; 6700 nM) | level (log10) ([2]; 20000 nM) | level (log10) ([3]; 6700 nM) | level (log10) ([3]; 20000 nM) | level (log10) ([3]; 60000 nM) | level (log10) (Heptafluorobutyramide; 6700 nM) | level (log10) (Heptafluorobutyramide; 20000 nM) | level (log10) (Heptafluorobutyramide; 60000 nM) | level (log10) (Perfluoropentanoic acid; 6700 nM) | level (log10) (Perfluoropentanoic acid; 20000 nM) | level (log10) (Perfluoropentanoic acid; 60000 nM) | level (log10) ([4]; 6700 nM) | level (log10) ([4]; 20000 nM) | level (log10) ([4]; 60000 nM)
SAg:CXCL8/IL-8 | -0.0325 ± 0.03 | -0.064 ± 0.038 | -0.007 ± 0.05 | -0.0085 ± 0.026 | 0.0165 ± 0.033 | 0.0095 ± 0.025 | -0.167 ± 0.03 | 0.0115 ± 0.022 | -0.005 | 0.014 ± 0.044 | 0.015 ± 0.013 | 0.011 ± 0.017 | 0.0085 ± 0.021 | -0.012 ± 0.041 | -0.018 ± 0.044 | -0.013 ± 0.088 | -0.006 ± 0.0085 | -0.0015 ± 0.0064 | 0.0155 ± 0.035
4H:CCL26/Eotaxin-3 | -0.0085 ± 0.011 | -0.0305 ± 0.011 | -0.0075 ± 0.0064 | 0.0175 ± 0.0078 | 0.0025 ± 0.005 | 0.077 ± 0.031 | -0.143 ± 0.14 | 0.0015 ± 0.0021 | 0.0015 ± 0.0092 | -0.0035 ± 0.00071 | 0.0315 ± 0.021 | 0.0345 ± 0.0035 | 0.0185 ± 0.019 | 0.0015 ± 0.0035 | -0.0185 ± 0.022 | 0.004 ± 0.05 | 0.0045 ± 0.022 | 0.017 ± 0.021 | 0.0085 ± 0.0092
BF4T:CCL26/Eotaxin-3 | -0.083 ± 0.038 | -0.509 ± 0.029 | -0.0095 ± 0.005 | -0.0175 ± 0.0092 | -0.016 ± 0.0042 | 0.0905 ± 0.029 | 0.141 ± 0.0028 | 0.0155 ± 0.0092 | 0.005 ± 0.035 | 0.024 ± 0.044 | 0.0165 ± 0.022 | -0.0035 ± 0.0021 | 0.0045 ± 0.012 | -0.0155 ± 0.029 | -0.0165 ± 0.0092 | 0.018 ± 0.05 | -0.048 ± 0.059 | -0.037 ± 0.033 | 0.0145 ± 0.11
BT:B cell Proliferation | 0.0135 ± 0.04 | 0.0395 ± 0.03 | -0.022 ± 0.023 | -0.019 ± 0.047 | -0.001 ± 0.05 | 0.0165 ± 0.005 | -0.0405 ± 0.059 | -0.011 ± 0.0071 | 0 ± 0.0014 | -0.0145 ± 0.0078 | 0.0055 ± 0.018 | -0.02 ± 0.025 | -0.003 ± 0.03 | 0.009 ± 0.0057 | 0.0215 ± 0.06 | 0.0275 ± 0.012 | 0.0095 ± 0.016 | -0.009 ± 0.023 | 0.0035 ± 0.0035
4H:VEGFR2 | -0.007 ± 0.017 | -0.01 ± 0.02 | 0.0325 ± 0.013 | 0.0435 ± 0.03 | 0.0495 ± 0.069 | 0.0365 ± 0.0092 | 0.002 ± 0.0042 | 0.011 ± 0.045 | 0.043 ± 0.044 | 0.0595 ± 0.049 | 0.018 ± 0.024 | 0.01 | 0.0075 ± 0.029 | 0.0065 ± 0.056 | 0.0025 ± 0.013 | 0.008 ± 0.025 | -0.045 ± 0.016 | -0.06 ± 0.011 | -0.016 ± 0.047
BE3C:HLA-DR | -0.0525 ± 0.022 | -0.842 ± 0.04 | -0.016 | 0.004 ± 0.0028 | -0.0235 ± 0.03 | -0.0445 ± 0.013 | -0.115 ± 0.031 | -0.0065 ± 0.025 | -0.009 ± 0.021 | -0.008 ± 0.0042 | -0.0065 ± 0.005 | 0.0245 ± 0.012 | -0.009 ± 0.0099 | -0.0095 ± 0.018 | 0 ± 0.011 | 0.016 ± 0.033 | -0.0025 ± 0.00071 | -0.02 ± 0.013 | 0.0085 ± 0.025
4H:CCL2/MCP-1 | -0.014 ± 0.0057 | -0.0255 ± 0.03 | -0.048 ± 0.033 | -0.0435 ± 0.025 | 0.0125 ± 0.023 | -0.007 ± 0.0099 | -0.159 ± 0.044 | -0.037 ± 0.041 | -0.03 ± 0.013 | 0.008 ± 0.055 | -0.026 ± 0.013 | -0.0325 ± 0.022 | 0.004 ± 0.095 | -0.0085 ± 0.052 | -0.047 ± 0.0042 | 0.014 ± 0.052 | 0.003 ± 0.041 | -0.032 ± 0.018 | 0.0205 ± 0.0035
BF4T:tPA | -0.0185 ± 0.005 | -0.18 ± 0.097 | -0.019 ± 0.0085 | -0.023 ± 0.0014 | -0.0145 ± 0.013 | 0.0595 ± 0.0064 | 0.067 ± 0.0028 | 0.0015 ± 0.021 | 0.003 ± 0.013 | 0.0045 ± 0.0078 | -0.0065 ± 0.013 | 0.0015 ± 0.005 | 0.0135 ± 0.018 | -0.0295 ± 0.005 | -0.0215 ± 0.029 | -0.009 ± 0.061 | -0.003 ± 0.0028 | -0.024 ± 0.018 | 0.0155 ± 0.059
4H:CD62P/P-selectin | 0.087 ± 0.0071 | 0.093 ± 0.033 | -0.0325 ± 0.071 | -0.017 ± 0.064 | 0.0135 ± 0.053 | -0.079 ± 0.0014 | -0.142 ± 0.044 | 0.0225 ± 0.091 | 0.034 ± 0.055 | 0.0615 ± 0.046 | 0.002 ± 0.0099 | 0.049 ± 0.034 | 0.015 ± 0.02 | -0.0025 ± 0.067 | -0.023 ± 0.03 | -0.0285 ± 0.043 | -0.004 | 0.014 ± 0.0014 | 0.0275 ± 0.013
BE3C:EGFR | -0.0135 ± 0.05 | -0.149 ± 0.073 | -0.029 ± 0.021 | 0.008 ± 0.0042 | -0.022 ± 0.0071 | -0.02 ± 0.0014 | -0.072 ± 0.0057 | 0.0085 ± 0.012 | -0.0025 ± 0.021 | -0.0095 ± 0.0064 | -0.008 ± 0.0028 | -0.017 ± 0.011 | 0.004 ± 0.021 | -0.0025 ± 0.021 | -0.011 ± 0.0057 | 0.004 ± 0.018 | 0.0115 ± 0.015 | 0.005 ± 0.021 | 0.0195 ± 0.077
BF4T:SRB | -0.001 ± 0.0071 | -0.256 ± 0.0014 | -0.002 ± 0.0028 | 0.003 ± 0.0028 | -0.003 ± 0.0014 | -0.016 ± 0.0071 | -0.027 ± 0.018 | -0.0045 ± 0.013 | -0.0065 ± 0.005 | -0.0055 ± 0.0021 | -0.01 ± 0.0085 | -0.0075 ± 0.00071 | -0.005 ± 0.0099 | -0.011 ± 0.0085 | -0.008 ± 0.0071 | 0.001 ± 0.0099 | -0.0115 ± 0.00071 | -0.014 ± 0.0014 | 0.003 ± 0.018
BT:sIL-2 | 0.008 ± 0.092 | 0.118 ± 0.013 | 0.017 ± 0.018 | -0.042 ± 0.037 | 0.027 ± 0.12 | -0.046 ± 0.03 | -0.339 ± 0.076 | 0.002 ± 0.059 | -0.0075 ± 0.035 | 0.033 ± 0.042 | 0.068 ± 0.017 | -0.041 ± 0.059 | 0.0165 ± 0.0092 | -0.0115 ± 0.17 | 0.0385 ± 0.00071 | 0.0385 ± 0.0078 | 0.004 ± 0.027 | -0.017 ± 0.05 | -0.002 ± 0.041
BF4T:PAI-I | 0.0185 ± 0.00071 | -0.119 ± 0.043 | 0.007 ± 0.025 | 0.0055 ± 0.012 | -0.007 ± 0.0028 | 0.014 ± 0.0014 | -0.0105 ± 0.00071 | -0.005 ± 0.02 | -0.015 ± 0.011 | -0.001 ± 0.013 | -0.0025 ± 0.0021 | -0.014 ± 0.016 | 0.005 ± 0.027 | -0.003 ± 0.0014 | -0.005 ± 0.0028 | 0.007 ± 0.011 | 0.0085 ± 0.013 | 0.007 ± 0.0099 | 0.0095 ± 0.012
SAg:CD62E/E-Selectin | 0.0005 ± 0.015 | 0.0165 ± 0.023 | -0.014 ± 0.014 | -0.03 ± 0.0071 | 0.007 ± 0.0057 | 0.0625 ± 0.013 | 0.079 ± 0.016 | -0.0135 ± 0.0064 | -0.0185 ± 0.0064 | 0.0125 ± 0.044 | 0.0035 ± 0.023 | -0.008 ± 0.047 | -0.0065 ± 0.022 | 0.0005 ± 0.0064 | -0.012 ± 0.013 | 0.0195 ± 0.025 | 0.007 ± 0.0085 | 0.011 ± 0.0028 | 0.011 ± 0.021
LPS:CD106/VCAM-1 | 0.0015 ± 0.0035 | -0.001 ± 0.0014 | -0.0265 ± 0.011 | -0.0265 ± 0.00071 | -0.0085 ± 0.021 | -0.0195 ± 0.023 | -0.0395 ± 0.012 | 0.0185 ± 0.033 | -0.02 ± 0.0042 | -0.013 ± 0.033 | 0.0005 ± 0.005 | -0.0005 ± 0.012 | -0.0145 ± 0.029 | 0.005 ± 0.013 | 0.004 ± 0.0057 | 0.0035 ± 0.023 | 0.011 ± 0.013 | -0.007 ± 0.0028 | -0.009 ± 0.021
